From the NIST ThermoML archive (doi:10.1016/j.fluid.2010.10.028)

Assay: xn = mol fraction of the nth substance listed
Settings: Liquid, Vibrating tube method

CC(C)=O [acetone] + CCCCCCC
Settings | mass density [kg/m3]
357.55 K, 24990 kPa, x1 = 0.4 | 726.84
357.55 K, 24990 kPa, x1 = 0.8992 | 726.84
357.55 K, 29870 kPa, x1 = 0.492 | 686.24
357.55 K, 29870 kPa, x1 = 0.611 | 695.58
357.55 K, 29970 kPa, x1 = 0.4 | 732.49
357.55 K, 29970 kPa, x1 = 0.8992 | 732.49
357.55 K, 34840 kPa, x1 = 0.492 | 691.34
357.55 K, 34860 kPa, x1 = 0.611 | 700.78
357.55 K, 34960 kPa, x1 = 0.4 | 737.79
357.55 K, 34960 kPa, x1 = 0.8992 | 737.79
357.55 K, 39860 kPa, x1 = 0.492 | 696.15
357.55 K, 39860 kPa, x1 = 0.611 | 705.69
357.55 K, 39960 kPa, x1 = 0.4 | 742.81
357.55 K, 39960 kPa, x1 = 0.8992 | 742.81
357.55 K, 44840 kPa, x1 = 0.492 | 700.71
357.55 K, 44850 kPa, x1 = 0.611 | 710.3
357.55 K, 44950 kPa, x1 = 0.4 | 747.57
357.55 K, 44950 kPa, x1 = 0.8992 | 747.57
357.55 K, 49840 kPa, x1 = 0.611 | 714.7
357.55 K, 49940 kPa, x1 = 0.4 | 752.09
357.55 K, 49940 kPa, x1 = 0.8992 | 752.09
357.55 K, 54850 kPa, x1 = 0.492 | 709.15
357.55 K, 54940 kPa, x1 = 0.4 | 756.43
357.55 K, 54940 kPa, x1 = 0.611 | 718.97
357.55 K, 54940 kPa, x1 = 0.8992 | 756.43
357.55 K, 59860 kPa, x1 = 0.492 | 713.06
357.55 K, 59930 kPa, x1 = 0.4 | 760.56
357.55 K, 59930 kPa, x1 = 0.611 | 722.96
357.55 K, 59930 kPa, x1 = 0.8992 | 760.56
357.55 K, 64830 kPa, x1 = 0.492 | 716.77
357.55 K, 64890 kPa, x1 = 0.4 | 764.53
357.55 K, 64890 kPa, x1 = 0.8992 | 764.53
357.55 K, 69890 kPa, x1 = 0.4 | 768.36
357.55 K, 69890 kPa, x1 = 0.8992 | 768.36
357.55 K, 69910 kPa, x1 = 0.611 | 730.41
357.55 K, 69930 kPa, x1 = 0.492 | 720.43
357.55 K, 74860 kPa, x1 = 0.4 | 772.01
357.55 K, 74860 kPa, x1 = 0.8992 | 772.01
357.55 K, 74890 kPa, x1 = 0.611 | 733.9
357.55 K, 74910 kPa, x1 = 0.492 | 723.89
357.55 K, 79780 kPa, x1 = 0.7024 | 747.09
357.55 K, 79880 kPa, x1 = 0.611 | 737.26
357.55 K, 84830 kPa, x1 = 0.4 | 778.99
357.55 K, 84830 kPa, x1 = 0.8992 | 778.99
357.55 K, 89740 kPa, x1 = 0.7024 | 753.59
357.55 K, 89810 kPa, x1 = 0.4 | 782.3
357.55 K, 89810 kPa, x1 = 0.8992 | 782.3
357.55 K, 89830 kPa, x1 = 0.611 | 743.64
357.55 K, 94820 kPa, x1 = 0.611 | 746.67
357.55 K, 94860 kPa, x1 = 0.492 | 736.47
357.55 K, 99800 kPa, x1 = 0.611 | 749.61
357.55 K, 99820 kPa, x1 = 0.7024 | 759.74
357.55 K, 104700 kPa, x1 = 0.4 | 791.65
357.55 K, 104700 kPa, x1 = 0.8992 | 791.65
357.55 K, 104820 kPa, x1 = 0.7024 | 762.65
357.55 K, 109810 kPa, x1 = 0.7024 | 765.49
357.55 K, 114810 kPa, x1 = 0.7024 | 768.22
357.55 K, 119810 kPa, x1 = 0.7024 | 770.9
357.55 K, 124810 kPa, x1 = 0.7024 | 773.52
357.55 K, 129800 kPa, x1 = 0.7024 | 776.06
357.56 K, 1060 kPa, x1 = 0.801 | 677.14
357.56 K, 4870 kPa, x1 = 0.801 | 683.82
357.56 K, 9840 kPa, x1 = 0.801 | 691.71
357.56 K, 14860 kPa, x1 = 0.801 | 698.89
357.56 K, 34850 kPa, x1 = 0.801 | 722.54
357.56 K, 49850 kPa, x1 = 0.492 | 705.01
357.56 K, 59820 kPa, x1 = 0.801 | 745.17
357.56 K, 64910 kPa, x1 = 0.611 | 726.75
357.56 K, 64920 kPa, x1 = 0.801 | 749.17
357.56 K, 69910 kPa, x1 = 0.801 | 752.93
357.56 K, 74880 kPa, x1 = 0.801 | 756.52
357.56 K, 79850 kPa, x1 = 0.4 | 775.55
357.56 K, 79850 kPa, x1 = 0.8992 | 775.55
357.56 K, 79900 kPa, x1 = 0.492 | 727.2
357.56 K, 84860 kPa, x1 = 0.611 | 740.5
357.56 K, 84870 kPa, x1 = 0.801 | 763.37
357.56 K, 84890 kPa, x1 = 0.492 | 730.4
357.56 K, 89840 kPa, x1 = 0.801 | 766.6
357.56 K, 89880 kPa, x1 = 0.492 | 733.49
357.56 K, 94780 kPa, x1 = 0.4 | 785.51
357.56 K, 94780 kPa, x1 = 0.8992 | 785.51
357.56 K, 94830 kPa, x1 = 0.801 | 769.76
357.56 K, 99750 kPa, x1 = 0.4 | 788.61
357.56 K, 99750 kPa, x1 = 0.8992 | 788.61
357.56 K, 99810 kPa, x1 = 0.801 | 772.8
357.56 K, 99830 kPa, x1 = 0.492 | 739.34
357.56 K, 104780 kPa, x1 = 0.611 | 752.46
357.56 K, 104780 kPa, x1 = 0.801 | 775.76
357.56 K, 104810 kPa, x1 = 0.492 | 742.14
357.56 K, 109680 kPa, x1 = 0.4 | 794.58
357.56 K, 109680 kPa, x1 = 0.8992 | 794.58
